{
  "source": "patent US9528992B2",
  "about": "“Methods and kits for detection of active malignancy” (priority 2012, dated 2016)",
  "key": {"[1]": {"biological_target": "albumin (Homo sapiens, UniProt P02768)", "sequence (P02768 25-609, species assumed)": "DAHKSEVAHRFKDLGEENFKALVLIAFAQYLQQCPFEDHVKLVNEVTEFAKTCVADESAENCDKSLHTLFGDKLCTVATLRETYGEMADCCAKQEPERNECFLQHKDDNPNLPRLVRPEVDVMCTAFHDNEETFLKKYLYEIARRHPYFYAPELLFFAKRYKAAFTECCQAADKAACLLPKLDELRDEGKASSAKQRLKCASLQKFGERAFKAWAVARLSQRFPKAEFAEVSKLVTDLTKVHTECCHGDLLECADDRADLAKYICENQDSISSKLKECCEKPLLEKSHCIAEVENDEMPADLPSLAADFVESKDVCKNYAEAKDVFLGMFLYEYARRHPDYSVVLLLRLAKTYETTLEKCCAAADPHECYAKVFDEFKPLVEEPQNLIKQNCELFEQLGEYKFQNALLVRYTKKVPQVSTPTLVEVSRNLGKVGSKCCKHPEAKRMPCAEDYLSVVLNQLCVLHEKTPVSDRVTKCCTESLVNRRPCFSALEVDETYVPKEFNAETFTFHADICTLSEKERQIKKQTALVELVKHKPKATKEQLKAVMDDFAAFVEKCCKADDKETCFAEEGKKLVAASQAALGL", "details": "affinity of albumin for unlabeled stearic acid; cited from earlier work"}, "[2]": {"biological_target": "T1, serum albumin (Homo sapiens, UniProt P02768)", "T1 construct": "from tissue; host or cells: blood serum of patients (whole blood centrifugation)", "T1 sequence (P02768 25-609)": "as the sequence (P02768 25-609, species assumed) above", "assay": "EPR spectroscopy of spin probe binding to primary and secondary binding sites of serum albumin in patient serum", "from_the_text": "At the condition of binding equilibrium in the mixture of sample aliquot, probe, and solvent, the binding efficiencies (BE1 and BE2) of specific (primary) and non-specific (secondary) hydrophobic binding sites of serum albumin can be calculated using the concentrations of the probe bound on the primary site of albumin (B1), on the secondary albumin site (B2) and unbound probe concentration (F), and solvent concentration (S) in the mixture. For example, can be calculated with either: 1/BE1=1/(Kb1·N1)=(Sc/S−1)·(F/B1)·P·(1−B1/(P·N1)) (2) 1/BE2=1/(Kb2·N2)=(Sc/S−1)·(F/B2)·P·(1−B2/(P·N2)) (3) where Sc=0.27 volume percent is the critical concentration of the solvent (as described above), P is the concentration of serum albumin in the sample, N1 is the number of specific or primary binding sites for the probe on the serum albumin molecule, N2 is the number of non-specific or secondary binding sites for the probe between the albumin on the serum albumin molecule. Generally, where the probe is a long chain fatty acid, N1=7 and N2 is from 6 to 8 for purified albumin. For native serum albumin of a healthy person N1 is from 4 to 7, and N2 is from 3 to 7. In native serum samples, typically the relative concentration of the spin probe bound on primary site, parameter B1/P, is about 0.5; and parameter B2/P is about 0.4. Therefore, the binding efficiencies BE1 and BE2 can be calculated (within about 10%) using the approximate formulas: 1/BE1=(Sc/S−1)·(F/B1)·P (2a) 1/BE2=(Sc/S−1)·(F/B2)·P (3a)\nIn Table 2, B1 and B2 are relative concentrations of the probe bound on primary and secondary sites of albumin, F is the relative concentration of unbound probe, B1/F and B2/F are parameters representing the binding efficiency of the primary and secondary binding sites of albumin, DP is discriminating parameter designed by square discriminant analysis using a set of probe binding parameters.\nBlood serum was obtained by whole blood centrifugation. An aliquot of 50 μl of serum from each patient was used for each test. A spin probe of 2-(14-carboxytetradecyl)-2-ethyl-4,4-dimethyl-3-oxazolidinyloxy (purchased from Fluorochem Ltd., Derbyshire, UK) was mixed into the aliquot at a concentration of 1.64 mmol/l. A solvent, 14 μl of ethanol, was mixed into the aliquot. The molar ratio of the probe to serum albumin in the aliquot was 3.5, based on an albumin concentration in the serum of 4 g/dL. The mixture was then incubated for 10 min at 37° C. with continuous agitation in a standard shaker operated at about 5-8 Hz.\nAfter incubation, the probe was placed into a glass capillary (e.g., Model No. RM-40, available from KABE LABORTECHNIK GmbH, Numbrecht-Elsenroth, Germany).\nThe EPR spectrum of the mixture was then measured, as described below. The above-described capillary was placed into the resonator of an EPR spectrometer for spectroscopic analysis. The spectroscopy parameters were as follows: microwave power 15 mW at frequency 9.52 GHz; magnetic field 0.34 T (3400 G) with scan range 12 mT (120 G); modulation amplitude 0.2 mT (2 G); data accumulation by three scans each with 4096 measured points and a sweep time 60 s. The capillary temperature was 37° C., and was controlled within +/−0.2° C.\nThe EPR spectrum was analyzed by computer using an EPR-spectrum simulation with nonlinear least-squares fits. The spectrum model included five components. The first two are the B and C components which represent portions of the probe that were bound differently on serum albumin. As shown here, the B and C components primarily differed by spectral parameters of A tensors (hyperfine splitting tensor): A∥(B)=30.02 Oe, A⊥(B)=9.02 Oe, A∥(C)=21.5 Oe, and A⊥(C)=13.35 Oe. Parameters of the g tensor used in the spectral calculations of these two components were: g∥(B)=1.9983, g⊥(B)=2.0019, g∥(C)=1.9990, and g⊥(C)=2.0013. The third D component represented the unbound spin probe residing free in the sample. The parameters of the D component were: A∥(D)=A⊥(D)=15.6 Oe, and g∥(D)=g⊥(D)=2.0008. […]"}, "[3]": {"details": "cancer-free persons, Mean, serum albumin 0.47 mmol, spin probe 1.64 mmol, ethanol 0.22 volume percent"}, "[4]": {"details": "patients with active malignancies, Max"}, "[5]": {"details": "patients with active malignancies, Mean"}, "[6]": {"details": "patients with active malignancies, Mean, serum albumin 0.47 mmol, spin probe 1.64 mmol, ethanol 0.22 volume percent"}, "[7]": {"details": "patients with active malignancies, Min"}},
  "data": [
    {"smiles": "CCCCCCCCCCCCCCCCCC(=O)O", "note": "[stearic acid]", "values": [
      {"measurement": "binding constant", "setting": "[1]", "value": "about 10^9 mol^−1"}
    ]},
    {"smiles": "CCC1(CCCCCCCCCCCCCCC(=O)O)OCC(C)(C)N1[O]", "note": "(stereo not shown) [16-doxyl stearic acid, 2-(14-carboxytetradecyl)-2-ethyl-4,4-dimethyl-3-oxazolidinyloxy]", "values": [
      {"measurement": "B1, relative concentration of probe bound on primary sites of albumin", "setting": "[2]; cancer-free persons, Max", "value": 0.60},
      {"measurement": "B1/F, binding efficiency of primary binding sites of albumin", "setting": "[2]; cancer-free persons, Max", "value": 54.4},
      {"measurement": "B2, relative concentration of probe bound on secondary sites of albumin", "setting": "[2]; cancer-free persons, Max", "value": 0.45},
      {"measurement": "B2/F, binding efficiency of secondary binding sites of albumin", "setting": "[2]; cancer-free persons, Max", "value": 37.5},
      {"measurement": "DP, discriminating parameter", "setting": "[2]; cancer-free persons, Max", "value": "−0.3"},
      {"measurement": "F, relative concentration of unbound probe", "setting": "[2]; cancer-free persons, Max", "value": 0.044},
      {"measurement": "B1/F, binding efficiency of primary binding sites of albumin", "setting": "[2]; cancer-free persons, Mean", "value": 21.8},
      {"measurement": "B2/F, binding efficiency of secondary binding sites of albumin", "setting": "[2]; cancer-free persons, Mean", "value": 15.8},
      {"measurement": "DP, discriminating parameter", "setting": "[2]; cancer-free persons, Mean", "value": "−3.3"},
      {"measurement": "B1, relative concentration of probe bound on primary sites of albumin", "setting": "[2]; [3]", "value": 0.52},
      {"measurement": "B2, relative concentration of probe bound on secondary sites of albumin", "setting": "[2]; [3]", "value": 0.38},
      {"measurement": "F, relative concentration of unbound probe", "setting": "[2]; [3]", "value": 0.026},
      {"measurement": "B1, relative concentration of probe bound on primary sites of albumin", "setting": "[2]; cancer-free persons, Min", "value": 0.40},
      {"measurement": "B1/F, binding efficiency of primary binding sites of albumin", "setting": "[2]; cancer-free persons, Min", "value": 10.4},
      {"measurement": "B2, relative concentration of probe bound on secondary sites of albumin", "setting": "[2]; cancer-free persons, Min", "value": 0.34},
      {"measurement": "B2/F, binding efficiency of secondary binding sites of albumin", "setting": "[2]; cancer-free persons, Min", "value": 8.5},
      {"measurement": "DP, discriminating parameter", "setting": "[2]; cancer-free persons, Min", "value": "−5.2"},
      {"measurement": "F, relative concentration of unbound probe", "setting": "[2]; cancer-free persons, Min", "value": 0.010},
      {"measurement": "B1, relative concentration of probe bound on primary sites of albumin", "setting": "[2]; [4]", "value": 0.54},
      {"measurement": "B1/F, binding efficiency of primary binding sites of albumin", "setting": "[2]; [4]", "value": 11.4},
      {"measurement": "B2, relative concentration of probe bound on secondary sites of albumin", "setting": "[2]; [4]", "value": 0.38},
      {"measurement": "B2/F, binding efficiency of secondary binding sites of albumin", "setting": "[2]; [4]", "value": 6.5},
      {"measurement": "DP, discriminating parameter", "setting": "[2]; [4]", "value": 66.0},
      {"measurement": "F, relative concentration of unbound probe", "setting": "[2]; [4]", "value": 0.155},
      {"measurement": "B1/F, binding efficiency of primary binding sites of albumin", "setting": "[2]; [5]", "value": 5.9},
      {"measurement": "B2/F, binding efficiency of secondary binding sites of albumin", "setting": "[2]; [5]", "value": 4.5},
      {"measurement": "DP, discriminating parameter", "setting": "[2]; [5]", "value": 8.0},
      {"measurement": "B1, relative concentration of probe bound on primary sites of albumin", "setting": "[2]; [6]", "value": 0.44},
      {"measurement": "B2, relative concentration of probe bound on secondary sites of albumin", "setting": "[2]; [6]", "value": 0.33},
      {"measurement": "F, relative concentration of unbound probe", "setting": "[2]; [6]", "value": 0.079},
      {"measurement": "B1, relative concentration of probe bound on primary sites of albumin", "setting": "[2]; [7]", "value": 0.32},
      {"measurement": "B1/F, binding efficiency of primary binding sites of albumin", "setting": "[2]; [7]", "value": 2.3},
      {"measurement": "B2, relative concentration of probe bound on secondary sites of albumin", "setting": "[2]; [7]", "value": 0.23},
      {"measurement": "B2/F, binding efficiency of secondary binding sites of albumin", "setting": "[2]; [7]", "value": 1.6},
      {"measurement": "DP, discriminating parameter", "setting": "[2]; [7]", "value": 0.1},
      {"measurement": "F, relative concentration of unbound probe", "setting": "[2]; [7]", "value": 0.047}
    ]}
  ]
}
